In patent US20240294541A1, “COMPOUNDS CONSTITUTING C20-MODIFIED SALINOMYCIN DERIVATIVES, A METHOD FOR OBTAINING THE SAME, A COMPOSITION CONTAINING THE SAME AND A USE OF SAID COMPOUNDS” (FILECLO SPOLKA Z OGRANICZONA ODPOWIEDZIALNOSCIA, priority 2021, published 2024):

Tests used:
Assay type in all cases: cell-based
[1] = test system: MV-4-11 (human biphenotypic leukaemia); experiment: In vitro cytotoxicity, MTT assay, MV-4-11; settings: for IC50: Homo sapiens, MV4-11, read-out: IC50 (nM) MV4-11
[2] = test system: BALB/3T3 (normal mouse fibroblasts); experiment: In vitro cytotoxicity, SRB assay, normal BALB/3T3 fibroblasts; settings: Table 4; BALB/3T3 normal mouse fibroblasts; read-out: IC50 (nM) BALB3T3 normal cells
[3] = test system: MIA PaCa-2 (human pancreatic cancer); experiment: cells; settings: Table 4; for IC50: MIA PaCa-2 human pancreatic cancer cells, read-out: IC50 (nM) MIA PaCa-2; for SI MIA PaCa-2: selectivity coefficient vs normal BALB/3T3 fibroblasts
[4] = test system: PLC/PRF/5 (human liver cancer); experiment: cells; settings: Table 4; for IC50: PLC/PRF/5 human liver cancer cells, read-out: IC50 (nM) PLC/PRF/5; for SI PLC/PRF/5: selectivity coefficient vs normal BALB/3T3 fibroblasts
[5] = test system: NCI-H358 (human lung cancer); experiment: cells; settings: Table 4; for IC50: NCI-H358 human lung cancer cells, read-out: IC50 (nM) NCI-H358; for SI NCI-H358: selectivity coefficient vs normal BALB/3T3 fibroblasts
[6] = test system: A2780Cis (cisplatin-resistant human ovarian cancer); experiment: In vitro cytotoxicity, SRB assay, A2780Cis; settings: for IC50: Homo sapiens, A2780cis, read-out: IC50 (nM) A2780Cis
[7] = test system: SNU-16 (human gastric cancer); experiment: cells; settings: Table 4; for IC50: SNU-16 human gastric cancer cells, read-out: IC50 (nM) SNU-16; for SI SNU-16: selectivity coefficient vs normal BALB/3T3 fibroblasts
Hs294T (human melanoma) = experiment: cells; settings: Table 4; for IC50: Hs 294T, Hs294T human melanoma cells, read-out: IC50 (nM) Hs294T; for SI Hs294T: selectivity coefficient vs normal BALB/3T3 fibroblasts

SMILES: CC[C@@H](C(=O)[C@@H](C)[C@@H](O)[C@H](C)[C@@H]1O[C@@H]([C@@H](CC)C(=O)O)CC[C@@H]1C)[C@H]1O[C@]2(C=C[C@@H](NC(=O)C(=O)NC3CC3)[C@]3(CC[C@@](C)([C@H]4CC[C@](O)(CC)[C@H](C)O4)O3)O2)[C@H](C)C[C@@H]1C [FLC-00441-1•Na]
- SI MV4-11 [1]: 42.5
- IC50 [1]: 26.5 nM
- IC50 [2]: 1120 nM
- IC50 [3]: 373 nM
- SI MIA PaCa-2 [3]: 3.0
- IC50 [4]: 208 nM
- SI PLC/PRF/5 [4]: 5.4
- IC50 [5]: 930 nM
- SI NCI-H358 [5]: 1.21
- SI A2780Cis [6]: 25.7
- IC50 [6]: 43.8 nM
- IC50 [7]: 2600 nM
- SI SNU-16 [7]: 0.4
- IC50 (Hs294T (human melanoma)): 969 nM
- SI Hs294T (Hs294T (human melanoma)): 1.2

SMILES: CC[C@@H](C(=O)[C@@H](C)[C@@H](O)[C@H](C)[C@@H]1O[C@@H]([C@@H](CC)C(=O)O)CC[C@@H]1C)[C@H]1O[C@]2(C=C[C@@H](NC(=O)C(=O)NCC3CC3)[C@]3(CC[C@@](C)([C@H]4CC[C@](O)(CC)[C@H](C)O4)O3)O2)[C@H](C)C[C@@H]1C [FLC-00442-1•Na]
- SI MV4-11 [1]: 38.9
- IC50 [1]: 19.4 nM
- IC50 [2]: 754 nM
- IC50 [3]: 102 nM
- SI MIA PaCa-2 [3]: 7.4
- IC50 [4]: 53.9 nM
- SI PLC/PRF/5 [4]: 14.0
- IC50 [5]: 340 nM
- SI NCI-H358 [5]: 2.22
- SI A2780Cis [6]: 32.3
- IC50 [6]: 23.3 nM
- IC50 [7]: 1120 nM
- SI SNU-16 [7]: 0.7
- IC50 (Hs294T (human melanoma)): 1710 nM
- SI Hs294T (Hs294T (human melanoma)): 0.4

SMILES: CC[C@@H](C(=O)[C@@H](C)[C@@H](O)[C@H](C)[C@@H]1O[C@@H]([C@@H](CC)C(=O)O)CC[C@@H]1C)[C@H]1O[C@]2(C=C[C@@H](NC(=O)C(=O)NC)[C@]3(CC[C@@](C)([C@H]4CC[C@](O)(CC)[C@H](C)O4)O3)O2)[C@H](C)C[C@@H]1C [FLC-00443-1•Na]
- SI MV4-11 [1]: 23.4
- IC50 [1]: 175 nM
- IC50 [2]: 4110 nM
- IC50 [3]: 554 nM
- SI MIA PaCa-2 [3]: 7.4
- IC50 [4]: 477 nM
- SI PLC/PRF/5 [4]: 8.6
- IC50 [5]: 2620 nM
- SI NCI-H358 [5]: 1.57
- SI A2780Cis [6]: 23.3
- IC50 [6]: 176 nM
- IC50 [7]: 6190 nM
- SI SNU-16 [7]: 0.7
- IC50 (Hs294T (human melanoma)): 3970 nM
- SI Hs294T (Hs294T (human melanoma)): 1.0

SMILES: CC[C@@H](C(=O)[C@@H](C)[C@@H](O)[C@H](C)[C@@H]1O[C@@H]([C@@H](CC)C(=O)O)CC[C@@H]1C)[C@H]1O[C@]2(C=C[C@@H](NC(=O)OCCCCCCCl)[C@]3(CC[C@@](C)([C@H]4CC[C@](O)(CC)[C@H](C)O4)O3)O2)[C@H](C)C[C@@H]1C [FLC-00444-1•Na]
- SI MV4-11 [1]: 98.9
- IC50 [1]: 1.5 nM
- IC50 [2]: 148 nM
- IC50 [3]: 21.3 nM
- SI MIA PaCa-2 [3]: 6.9
- IC50 [4]: 4 nM
- SI PLC/PRF/5 [4]: 36.9
- IC50 [5]: 53.7 nM
- SI NCI-H358 [5]: 2.75
- SI A2780Cis [6]: 98.9
- IC50 [6]: 1.5 nM
- IC50 [7]: 105 nM
- SI SNU-16 [7]: 1.4
- IC50 (Hs294T (human melanoma)): 627 nM
- SI Hs294T (Hs294T (human melanoma)): 0.2

SMILES: CC[C@@H](C(=O)[C@@H](C)[C@@H](O)[C@H](C)[C@@H]1O[C@@H]([C@@H](CC)C(=O)O)CC[C@@H]1C)[C@H]1O[C@]2(C=C[C@@H](NC(=O)OCCOCc3ccccc3)[C@]3(CC[C@@](C)([C@H]4CC[C@](O)(CC)[C@H](C)O4)O3)O2)[C@H](C)C[C@@H]1C [FLC-00451-1•Na]
- SI MV4-11 [1]: 127.9
- IC50 [1]: 1.6 nM
- IC50 [2]: 204 nM
- IC50 [3]: 14.7 nM
- SI MIA PaCa-2 [3]: 13.9
- IC50 [4]: 42 nM
- SI PLC/PRF/5 [4]: 4.9
- IC50 [5]: 307 nM
- SI NCI-H358 [5]: 0.67
- SI A2780Cis [6]: 96.0
- IC50 [6]: 2.13 nM
- IC50 [7]: 126 nM
- SI SNU-16 [7]: 1.6
- IC50 (Hs294T (human melanoma)): 542 nM
- SI Hs294T (Hs294T (human melanoma)): 0.4

SMILES: CC[C@@H](C(=O)[C@@H](C)[C@@H](O)[C@H](C)[C@@H]1O[C@@H]([C@@H](CC)C(=O)O)CC[C@@H]1C)[C@H]1O[C@]2(C=C[C@@H](NC(=O)OCCOCCCl)[C@]3(CC[C@@](C)([C@H]4CC[C@](O)(CC)[C@H](C)O4)O3)O2)[C@H](C)C[C@@H]1C [FLC-00454-1•Na]
- SI MV4-11 [1]: 17.8
- IC50 [1]: 17.6 nM
- IC50 [2]: 313 nM
- IC50 [3]: 45.2 nM
- SI MIA PaCa-2 [3]: 6.9
- IC50 [4]: 63.1 nM
- SI PLC/PRF/5 [4]: 5.0
- IC50 [5]: 434 nM
- SI NCI-H358 [5]: 0.72
- SI A2780Cis [6]: 58.9
- IC50 [6]: 5.32 nM
- IC50 [7]: 103 nM
- SI SNU-16 [7]: 3.0
- IC50 (Hs294T (human melanoma)): 1040 nM
- SI Hs294T (Hs294T (human melanoma)): 0.3

SMILES: CC[C@@H](C(=O)[C@@H](C)[C@@H](O)[C@H](C)[C@@H]1O[C@@H]([C@@H](CC)C(=O)O)CC[C@@H]1C)[C@H]1O[C@]2(C=C[C@@H](NC(=O)C3CCCC3)[C@]3(CC[C@@](C)([C@H]4CC[C@](O)(CC)[C@H](C)O4)O3)O2)[C@H](C)C[C@@H]1C [FLC-00455-1•Na]
- SI MV4-11 [1]: 112.3
- IC50 [1]: 2.87 nM
- IC50 [2]: 323 nM
- IC50 [3]: 33 nM
- SI MIA PaCa-2 [3]: 9.8
- IC50 [4]: 60.7 nM
- SI PLC/PRF/5 [4]: 5.3
- IC50 [5]: 54.5 nM
- SI NCI-H358 [5]: 5.91
- SI A2780Cis [6]: 232.6
- IC50 [6]: 1.39 nM
- IC50 [7]: 165 nM
- SI SNU-16 [7]: 2.0
- IC50 (Hs294T (human melanoma)): 140 nM
- SI Hs294T (Hs294T (human melanoma)): 2.3

SMILES: CC[C@@H](C(=O)[C@@H](C)[C@@H](O)[C@H](C)[C@@H]1O[C@@H]([C@@H](CC)C(=O)O)CC[C@@H]1C)[C@H]1O[C@]2(C=C[C@@H](NC(=O)C(=O)NCCCc3ccccc3)[C@]3(CC[C@@](C)([C@H]4CC[C@](O)(CC)[C@H](C)O4)O3)O2)[C@H](C)C[C@@H]1C [FLC-00458-1•Na]
- SI MV4-11 [1]: 31.3
- IC50 [1]: 23.2 nM
- IC50 [2]: 727 nM
- IC50 [3]: 61.9 nM
- SI MIA PaCa-2 [3]: 11.7
- IC50 [4]: 84.4 nM
- SI PLC/PRF/5 [4]: 8.6
- IC50 [5]: 368 nM
- SI NCI-H358 [5]: 1.97
- SI A2780Cis [6]: 29.6
- IC50 [6]: 24.5 nM
- IC50 [7]: 323 nM
- SI SNU-16 [7]: 2.2
- IC50 (Hs294T (human melanoma)): 1590 nM
- SI Hs294T (Hs294T (human melanoma)): 0.5

SMILES: CC[C@@H](C(=O)[C@@H](C)[C@@H](O)[C@H](C)[C@@H]1O[C@@H]([C@@H](CC)C(=O)O)CC[C@@H]1C)[C@H]1O[C@]2(C=C[C@@H](NC(=O)OCCOC)[C@]3(CC[C@@](C)([C@H]4CC[C@](O)(CC)[C@H](C)O4)O3)O2)[C@H](C)C[C@@H]1C [FLC-00459-1•Na]
- SI MV4-11 [1]: 31.8
- IC50 [1]: 33.6 nM
- IC50 [2]: 1070 nM
- IC50 [3]: 78.3 nM
- SI MIA PaCa-2 [3]: 13.6
- IC50 [4]: 92.2 nM
- SI PLC/PRF/5 [4]: 11.6
- IC50 [5]: 531 nM
- SI NCI-H358 [5]: 2.01
- SI A2780Cis [6]: 30.7
- IC50 [6]: 34.7 nM
- IC50 [7]: 535 nM
- SI SNU-16 [7]: 2.0
- IC50 (Hs294T (human melanoma)): 786 nM
- SI Hs294T (Hs294T (human melanoma)): 1.4
